Reference: paper PMC5735092 (Scientific Reports, 2017)

Tests used:
[1] = target: IMPα/β1:C (Mus musculus, UniProt P52293); type: binding
[2] = test system: Vero cells
[3] = test system: C-GFP nuclear accumulation in HeLa cells; type: cell-based
[4] = test system: GFP-T-ag nuclear accumulation in HeLa cells; type: cell-based
[5] = test system: C-GFP nuclear import in HeLa cells; type: cell-based
[6] = test system: VEEV-TC83luc; type: cell-based, Venezuelan equine encephalitis virus
[7] = test system: IMPα/β1 binding to HIV-1 integrase; conditions: cited from earlier work
[8] = test system: VEEV C localization in infected Vero cells; type: cell-based
[9] = test system: TC83-WT; type: cell-based, Venezuelan equine encephalitis virus
[10] = test system: HIV-1; conditions: cited from earlier work
[11] = test system: VEEV; conditions: cited from earlier work

| Compound | IC50 [1] [µM] | CC50 [2] [µM] | nuclear accumulation of C-GFP [3] | nuclear accumulation of GFP-T-ag [4] | initial rate of C nuclear import [5] | maximal recovery of nuclear fluorescence (Fn(rec) max), lower than in DMSO alone treated cells [5] [%] | EC50 [6] [µM] | inhibition of IMPα/β1 binding to HIV-1 integrase [7] | nuclear C staining in infected cells [8] | titer of wild-type TC83 [9] | anti-HIV-1 activity [10] | activity against VEEV [11] |
| --- | --- | --- | --- | --- | --- | --- | --- | --- | --- | --- | --- | --- |
| O=C(c1cc(C(=O)N2CCN(c3cccc(Cl)c3)CC2)cc(C(=O)N2CCN(c3cccc(Cl)c3)CC2)c1)N1CCN(c2cccc(Cl)c2)CC1 [AK-968/15362127] | 32 ± 4.6 |  |  |  |  |  |  |  |  |  |  |  |
| CC(=O)Nc1ccc(S(=O)(=O)Nc2ccc(C3(c4ccc(NS(=O)(=O)c5ccc(NC(C)=O)cc5)cc4)c4ccccc4-c4ccccc43)cc2)cc1 [AN-329/40863801] |  | > 100 | no significant effect | no significant effect | significantly reduced | ~30 | > 50 |  |  |  |  |  |
| CC#C[C@]1(O)CC[C@H]2[C@@H]3CCC4=CC(=O)CCC4=C3[C@@H](c3ccc(N(C)C)cc3)C[C@@]21C [Mifepristone] |  |  |  |  |  |  |  | inhibitors of IMPα/β1 binding to HIV-1 integrase | reduced nuclear C staining | significantly reduced the titer | anti-HIV-1 activity | active against VEEV |
| Ivermectin |  |  | reduced nuclear accumulation of both constructs | reduced nuclear accumulation of both constructs |  |  |  | inhibitors of IMPα/β1 binding to HIV-1 integrase |  | reduced the titer to a lesser extent | anti-HIV-1 activity | active against VEEV |
